Data on eleven molecules can be found in PubChem BioAssay (NCI).

Several values for one entry are separate records, joined by “and”; a condition that tells them apart may be missing. Equal entries are not always repeated.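 How tested: cells in 96-well plates exposed to compound for 48 hours at five concentrations. Abbreviation: GI50, concentration required for 50% inhibition of growth. The concentration for full growth arrest is given as TGI.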 Some results are limits rather than exact numbers.

As usually defined, the GI50 is the concentration that inhibits growth by half. In general, TGI refers to the concentration giving total growth inhibition. The low end stands for greater sensitivity of the cells, the high end for lower sensitivity of the cells.

Common to all, as to test: DTP human tumour cell line panel, 48 h
In assay [1] the test system is LOX IMVI melanoma.
Assay [2] concerns HOP-92 NSCLC.
Assay [3] deals with MALME-3M melanoma.
The subject of assay [4] is NCI-H522 lung.
For assay [5], the system named is SW-620 colon.
In assay [6] the test system is OVCAR-4 ovarian.
In assay [7] the test system is K-562 leukemia.
For assay [8], the system named is SK-MEL-28 melanoma.
Assay [9] relates to SK-OV-3 ovarian.
The test system of assay [10] is SN12C renal.

With `O=C(NC(Cc1ccccc1)C(=O)CCl)OCc1ccccc1` (stereo not drawn), the GI50 in assay [1] was 1.3 µM; in assay [3], 1.93 µM; in assay [4], 1.36 µM; in assay [5], 1.91 µM; in assay [6], 2.04 µM; in assay [7] it was 2.65 µM. Moreover, the GI50 in assay [8] was 5.55 µM; in assay [9] it was 11.9 µM. Besides, the TGI in assay [1] is 3.12 µM and 7.49 µM; in assay [2], 28.3 µM; in assay [3], 6.7 µM and 23.8 µM; in assay [4] it was 3.43 µM and 4.31 µM; in [5] it was 5.23 µM and 15.8 µM; in assay [6] it was 13.5 µM. Besides, the total growth inhibition concentration (TGI) is > 100 µM and 40.1 µM in assay [7]; 19.3 µM and 25.3 µM in [8]; 29.7 µM and 27.6 µM in [9]; 17.7 µM and 20.3 µM in assay [10].
With `Cc1cc2nc3c4cc([N+](=O)[O-])ccc4n(CCN(C)C)c3nc2cc1C`, the 50% growth inhibitory concentration (GI50) in assay [1] is 0.28 µM; in [2], 0.648 µM; in assay [3], 0.527 µM; in [4], 0.893 µM; in assay [5], 0.301 µM; in [6] it was 0.527 µM. In addition, the 50% growth inhibitory concentration (GI50) is 0.366 µM in assay [7], 0.967 µM in assay [8], 0.905 µM in [9] and 0.448 µM in assay [10]. The TGI in assay [1] was determined as 1.19 µM; in assay [2] it was 13.3 µM; in assay [3], 1.87 µM; in assay [4] it was 4.94 µM; in assay [5], 7.19 µM; in assay [6] it was 6.6 µM. The total growth inhibition concentration (TGI) in assay [7] was above 100 µM; in [8], 2.48 µM; in [9] it was above 43.4 µM; in [10], above 54.8 µM.
Take `c1cnc2nc3n(c2c1)CSC3`: the TGI in assay [1], in assay [2], in [3], in assay [4], in assay [5] and in [6] was above 100 µM each time. Besides, the total growth inhibition concentration (TGI) in [7], in assay [8], in [9] and in [10] was above 100 µM in each case.
As to `COC(=O)Cc1nn2c(nc1=O)sc1ccc3ccccc3c12`, the TGI in assay [1], in assay [2], in assay [3], in assay [4], in [5] and in assay [6] was above 100 µM in each case. For the same molecule, the TGI in assay [7], in assay [8], in [9] and in assay [10] was above 100 µM in each case.
In the case of `NC(CSC1(c2ccc(Cl)cc2)c2ccccc2-c2ccccc21)C(=O)O` (stereo not drawn), the concentration for total growth inhibition (TGI) in assay [1] was 30.3 µM; in assay [2] it was 47.4 µM; in assay [3] it was 38.5 µM; in [4], 30.4 µM; in [5], above 100 µM; in [6] it was above 100 µM. The concentration for total growth inhibition (TGI) in assay [7] is above 100 µM; in [8], above 100 µM; in assay [9], above 100 µM; in assay [10], 41.4 µM.
With `COc1cc(CC(=O)c2cc3c(cc2-c2ccccc2)OCO3)cc(OC)c1OC`, the total growth inhibition concentration (TGI) is above 100 µM in [1]; 42 µM in assay [2]; above 100 µM in [3]; above 100 µM in assay [4]; above 100 µM in [5]; above 100 µM in assay [6]. In addition, the TGI in assay [7], in assay [8], in [9] and in assay [10] was above 100 µM in each case.
Turning to `CN(CCCCN)c1ccc2c(=O)[nH][nH]c(=O)c2c1`, the TGI in assay [1], in [2], in [3], in assay [4], in assay [5] and in assay [6] was above 100 µM in each case. In addition, the TGI in assay [7], in [8], in assay [9] and in [10] was above 100 µM throughout.
`Cc1ccc(S(=O)(=O)OC2CSSCC2OS(=O)(=O)c2ccc(C)cc2)cc1` (stereo not drawn): the TGI in assay [1] worked out at 28.5 µM; in assay [2], 23.7 µM; in assay [3], 34.3 µM; in [4], 22.8 µM; in [5], 29.6 µM; in [6] it was 23.3 µM. The total growth inhibition concentration (TGI) in [7] stood at 47.6 µM; in assay [8] it was 30.3 µM; in [9] it was 38.4 µM; in assay [10], 24 µM.
Take `O=C(Nc1nc(-c2ccccc2Cl)cs1)c1cc(-c2ccc(Cl)cc2)nc2ccc(Cl)cc12`: the GI50 in [1] was 0.457 µM; in assay [2], 1.42 µM; in assay [3], 4.77 µM; in [4], 3.48 µM; in assay [5], 4.01 µM; in assay [6], 9.92 µM. The GI50 in assay [7] is 3.66 µM; in [8], 5.61 µM; in assay [9], 26 µM; in assay [10], 0.895 µM. Besides, the TGI in assay [1] was 20.8 µM; in assay [2], 8.43 µM; in [3], 47.7 µM; in [4], 42.6 µM; in assay [5], above 100 µM; in assay [6], above 100 µM. The TGI in assay [7] is above 100 µM; in [8] it was above 100 µM; in assay [9], above 100 µM; in [10] it was 76.9 µM.
In the case of `COc1cc(=O)oc(/C=C/CO)c1C`, the concentration for total growth inhibition (TGI) in [1], in assay [2], in assay [3], in assay [4], in [5] and in [6] was above 100 µM throughout. Moreover, the TGI in assay [7], in assay [8], in [9] and in assay [10] was above 100 µM in each case.
On to `CNC(=O)c1cc(Oc2ccc3nc(NC(=O)Nc4cc(C(F)(F)F)cc(C(F)(F)F)c4)sc3c2)ccn1`, for which the GI50 in assay [1] is 1.21 µM; in assay [2], 0.301 µM; in assay [3] it was 0.908 µM; in [4], 0.534 µM; in [5], 1.56 µM; in assay [6], 0.958 µM. In addition, the GI50 was 0.784 µM in assay [7], 1.29 µM in assay [8], 1.43 µM in [9] and 1.64 µM in [10]. The TGI in assay [1] came out at 2.53 µM; in assay [2], 0.949 µM; in [3], 2.49 µM; in [4] it was 2.28 µM; in [5], 3.29 µM; in assay [6], 2.73 µM. Moreover, the total growth inhibition concentration (TGI) stood at 4.86 µM in assay [7], 2.93 µM in assay [8], 3.18 µM in assay [9] and 3.79 µM in assay [10].
